Test results published in patent publication US6420605B1, “Benzamidoxim derivatives, intermediate products and methods for preparing and using them as fungicides” (BASF Aktiengesellschaft, priority 1997, dated 2002).

System: powdery mildew of wheat (Erysiphe graminis f.sp.tritici)
Assay: Efficacy against powdery mildew of wheat (protective spray, greenhouse)
Type: in vivo
Settings: wheat seedlings cv. Frühgold sprayed 24 hours before dusting with spores, after 7 days, untreated plants 80%
Method: Leaves of wheat seedlings cv. “Frühgold” grown in pots were sprayed to runoff point with aqueous preparation of active ingredient made with a stock solution composed of 10% active ingredient, 63% cyclohexanone and 27% emulsifier and, 24 hours after the spray coating had dried on, dusted with spores of powdery mildew of wheat (Erysiphe graminis f.sp.tritici). The test plants were subsequently placed in the greenhouse at from 20 to 22° C. and a relative atmospheric humidity of 75 to 80%. After 7 days, the extent of the mildew development was determined visually in % of the total leaf area.

[1] = Example 3, aqueous preparation comprising 63 ppm active ingredient

Row | Structure (SMILES) | extent of the mildew development determined visually in % of the total leaf area (Example 4, concentration not given) | extent of the mildew development determined visually in % of the total leaf area [1]
1 | N#Cc1c(F)cccc1OC(F)F [II.1, 2-Difluoromethoxy-6-fluorobenzonitrile] | free from disease | –
2 | C=CCCON=C(NC(=O)Cc1ccccc1)c1c(F)cccc1OC(F)F [I.3, N-Phenylacetyl-2-difluoromethoxy-6-fluorobenzamide O-allylmethyl oxime] | – | free from disease
3 | O=C(Cc1ccccc1)NC(=NOCC1CC1)c1c(F)cccc1OC(F)F [I.6, N-Phenylacetyl-2-difluoromethoxy-6-fluorobenzamide O-cyclopropylmethyl oxime] | – | free from disease
